Measured values: article PMC7321382, “Synthesis and Antibacterial Analysis of Analogues of the Marine Alkaloid Pseudoceratidine” (Molecules, 2020)
In brackets after ≈: the same amount, converted by molar mass.

Legend:
[1] = test system: E. coli DH5α; assay: Antibacterial MIC, broth microdilution, E. coli; assay type: cell-based, Escherichia coli; conditions: for MIC: Escherichia coli, Gram-negative, 24 h incubation, highest concentration tested 128 µM, † lower starting concentration due to insolubility
Experimental: (§1) The MIC was determined using the broth microdilution method. Mueller Hinton (MH) broth base was prepared in milli-Q water, then autoclaved at 120 °C for 1 h before allowing it to cool to room temperature. A single colony of each bacterial strain (E. coli DH5α and S. aureus 16207) was inoculated in MHB and incubated at 37 °C overnight. Overnight cultures were adjusted to 10^6 CFU/mL in MHB according to the McFarland Standard,100 μL of which was further diluted to a total of 10 mL in the media. The stock solutions of the compounds were prepared at 12.8 mM in purified DMSO. The stock solutions were further diluted in milli-Q water to 64 μM in 0.5% DMSO for testing against S. aureus, and 256 μM in 2% DMSO for testing against E. coli. Compounds that were not soluble in these solvent mixtures were further diluted in half to get clear solutions for the bioassay. DMSO is known to have weak antibacterial activity. To exclude the antibacterial effect of DMSO from the results, a solution of 2% DMSO in milli-Q water was used as an additional control in the experiments. The compounds and three controls (the natural product pseudoceratidine 1 for both strains, streptomycin for S. aureus, and polymyxin B for E. coli) then underwent a dilution series. The assay was performed by adding 50 μL of each compound solution at the different concentrations and 50 μL of the diluted bacterial culture to the different wells of a 96-well microtiter plate. The experiments were performed at least thrice and in triplicates. MIC after 24 h of incubation was determined by both visual inspection and absorbance at 600 nm using an EnSpire Multimode plate reader.

[2] = test system: S. aureus 16207; assay: Antibacterial MIC, broth microdilution, S. aureus; assay type: cell-based, Staphylococcus aureus; conditions: Gram-positive, 24 h incubation, highest concentration tested 32 µM; for MIC: Staphylococcus aureus, 16207
Experimental: as §1

[3] = test system: HEK293 human embryonic kidney cells; assay: Cytotoxicity, sulforhodamine B cell proliferation assay; assay type: cell-based; conditions: for relative growth of HEK293 cells (% of untreated control) at 16 µM: Homo sapiens, 72 h, 16 µM compound, 3 days, relative to control with no treatment, mean ± SD of triplicates; for cytotoxic activity (in words): HEK293, at concentrations 2–4 times the MIC (16 µM)
Experimental: As described previously, cell proliferation was measured by sulforhodamine B colorimetric assay in which 2000 HEK293 human embryonic kidney cells were seeded in 96-well plates in the presence of varying concentrations of drugs. The sulforhodamine B colorimetric assay, which is based on the measurement of cellular protein content, was used to measure cell density. After drug treatment for 3 days, cells were fixed with 10% (w/v) trichloroacetic acid and stained with 0.057% (w/v) sulforhodamine B for 30 min, and the excess dye was removed by washing repeatedly with 1% (v/v) acetic acid. The protein-bound dye was dissolved in Tris base solution (10 mM) for optical density determination at 510 nm using a microplate reader. All experiments were done in triplicate, and were repeated at least twice. The optimal cell densities were previously determined to select initial cell densities that ensured that the cells were in the logarithmic phase for the experiments.

[4] = test system: Plasmodium falciparum; parameters: method as in PMID 29297684; conditions: anti-malarial; cited from earlier work
[5] = test system: Pseudomonas aeruginosa; parameters: method as in doi:10.1016/S0960-894X(96)00622-1, doi:10.1016/S0040-4020(98)00340-8, doi:10.1016/0040-4039(96)01310-X; conditions: Gram-negative; cited from earlier work
[6] = test system: Candida albicans; parameters: method as in doi:10.1016/S0960-894X(96)00622-1, doi:10.1016/S0040-4020(98)00340-8, doi:10.1016/0040-4039(96)01310-X; conditions: anti-fungal; cited from earlier work
[7] = test system: Listeria monocytogenes; parameters: method as in doi:10.1016/S0960-894X(96)00622-1, doi:10.1016/S0040-4020(98)00340-8, doi:10.1016/0040-4039(96)01310-X; conditions: Gram-positive; cited from earlier work
[8] = test system: Escherichia coli; parameters: method as in doi:10.1016/S0960-894X(96)00622-1, doi:10.1016/S0040-4020(98)00340-8, doi:10.1016/0040-4039(96)01310-X; conditions: Gram-negative; cited from earlier work
[9] = test system: Staphylococcus aureus; parameters: method as in doi:10.1016/S0960-894X(96)00622-1, doi:10.1016/S0040-4020(98)00340-8, doi:10.1016/0040-4039(96)01310-X; conditions: Gram-positive; cited from earlier work
[10] = test system: Balanus amphitrite; parameters: method as in doi:10.1016/0040-4039(96)00025-1; conditions: marine larval organism Balanus amphitrite; cited from earlier work
[11] = test system: HepG2 liver cell line; parameters: method as in PMID 29297684; conditions: compared with HEK293 result; cited from earlier work

| MIC [1] | MIC S. Aureus [2] | MIC [2] | melting point | Compound | relative growth of HEK293 cells (% of untreated control) at 16 µM [3] | other results |
| --- | --- | --- | --- | --- | --- | --- |
| 128 to 256 µM (≈ 67.4 to 135 µg/mL) | 4 to 8 µM | 4 to 8 µM (≈ 2.11 to 4.21 µg/mL) | 110 to 112 °C | O=C(NCCCNCCCCNCCCNC(=O)c1cc(Cl)c(Cl)[nH]1)c1cc(Cl)c(Cl)[nH]1 [Compound 19c] | 1.6 ± 2% |  |
| > 128 µM |  | > 32 µM | 158 to 160 °C | CC(C)(C)OC(=O)NCCCNC(=O)c1cc(Cl)c(Cl)[nH]1 [Compound 28c] |  |  |
| > 128 µM |  | 16 to 32 µM (≈ 10.2 to 20.5 µg/mL) | 173 to 175 °C | O=C(NCCCNCCCCNCCCNC(=O)c1cc(I)c[nH]1)c1cc(I)c[nH]1 [Compound 19f] |  |  |
| 64 to 128 µM (≈ 40.1 to 80.2 µg/mL) |  | 16 to 32 µM (≈ 10 to 20 µg/mL) | 78 to 80 °C | O=C(NCCCNCCCNCCCNC(=O)c1cc(I)c[nH]1)c1cc(I)c[nH]1 [Compound 18f] |  |  |
| 32 to 64 µM (≈ 22.1 to 44.2 µg/mL) | 2 to 4 µM | 2 to 4 µM (≈ 1.38 to 2.76 µg/mL) |  | O=C(NCCCNCCCNCCCNC(=O)c1cc(Br)c(Br)[nH]1)c1cc(Br)c(Br)[nH]1 [Compound 18e] | 2.1 ± 1.5% |  |
| 32 to 64 µM (≈ 22.5 to 45.1 µg/mL) | 2 to 4 µM | 2 to 4 µM (≈ 1.41 to 2.82 µg/mL) |  | O=C(NCCCNCCCCNCCCNC(=O)c1cc(Br)c(Br)[nH]1)c1cc(Br)c(Br)[nH]1 [Compound 19e] | 94.5 ± 5.9% | cytotoxic activity (in words) [3]: almost no cytotoxic activity; cytotoxicity versus HepG2 (in words) [11]: far less toxic |
| > 128 µM |  | > 32 µM | 90 to 91 °C | CC(C)(C)OC(=O)NCCCNC(=O)c1ccc[nH]1 [Compound 28a] |  |  |
| 32 to 64 µM (≈ 16.4 to 32.8 µg/mL) | 4 to 8 µM | 4 to 8 µM (≈ 2.05 to 4.1 µg/mL) | 109 to 111 °C | O=C(NCCCNCCCNCCCNC(=O)c1cc(Cl)c(Cl)[nH]1)c1cc(Cl)c(Cl)[nH]1 [Compound 18c] | 98 ± 4.5% | cytotoxic activity (in words) [3]: almost no cytotoxic activity |

Second part, the molecule before the results:

| Compound | MIC [1] | MIC S. Aureus [2] | MIC [2] | melting point | relative growth of HEK293 cells (% of untreated control) at 16 µM [3] | other results |
| --- | --- | --- | --- | --- | --- | --- |
| O=C(NCCCCNCCCNC(=O)c1cc(Br)c(Br)[nH]1)c1cc(Br)c(Br)[nH]1 [Pseudoceratine 1, pseudoceratidine] | 32 to 64 µM (≈ 20.7 to 41.4 µg/mL) | 8 to 16 µM | 8 to 16 µM (≈ 5.18 to 10.4 µg/mL) |  | 0.7 ± 0.8% | EC50 [4]: 1 µM; MIC Pseudomonas aeruginosa [5]: 128 mg/L (≈ 198 µM); MIC Candida albicans [6]: 32 mg/L (≈ 49.5 µM); MIC Listeria monocytogenes [7]: 5 mg/L (≈ 7.73 µM); MIC Escherichia coli [8]: 32 mg/L (≈ 49.5 µM); MIC Staphylococcus aureus [9]: 4 mg/L (≈ 6.18 µM); EC50 antifouling [10]: 8 mg/L (≈ 12.4 µM) |
| O=C(NCCCNCCCNC(=O)c1cc(Cl)c(Cl)[nH]1)c1cc(Cl)c(Cl)[nH]1 [Compound 14c] | 64 to 128 µM (≈ 29.1 to 58.3 µg/mL) | 8 to 16 µM | 8 to 16 µM (≈ 3.64 to 7.28 µg/mL) | 189 to 190 °C | 0.5 ± 0.3% |  |
| O=C(NCCCNCCCNC(=O)c1cc(Br)c(Br)[nH]1)c1cc(Br)c(Br)[nH]1 [Compound 14e] | 32 to 64 µM (≈ 20.3 to 40.5 µg/mL) | 8 to 16 µM | 8 to 16 µM (≈ 5.06 to 10.1 µg/mL) | 135 to 137 °C | 1.1 ± 0.9% |  |
| O=C(NCCCNCCNC(=O)c1cc(Cl)c(Cl)[nH]1)c1cc(Cl)c(Cl)[nH]1 [Compound 16c] | 32 to 64 µM (≈ 14.1 to 28.2 µg/mL) | 16 to 32 µM | 16 to 32 µM (≈ 7.06 to 14.1 µg/mL) | 133 to 135 °C | 2.5 ± 1.8% | activity against Gram-negative bacteria compared with 1 (in words) [1]: equivalents activity to 1 |
| O=C(NCCCNCCNC(=O)c1cc(Br)c(Br)[nH]1)c1cc(Br)c(Br)[nH]1 [Compound 16e] | 64 to 128 µM (≈ 39.6 to 79.2 µg/mL) | 8 to 16 µM | 8 to 16 µM (≈ 4.95 to 9.9 µg/mL) | 206 to 208 °C | 2.6 ± 2% |  |
| O=C(NCCCCCCNCCCCCCNC(=O)c1cc(Cl)c(Cl)[nH]1)c1cc(Cl)c(Cl)[nH]1 [Compound 15c] | 32 to 64 µM (≈ 17.3 to 34.5 µg/mL) | 4 to 8 µM | 4 to 8 µM (≈ 2.16 to 4.31 µg/mL) | 189 to 190 °C | 1.8 ± 2% |  |
| O=C(NCCCNCCCNC(=O)c1ccc[nH]1)c1ccc[nH]1 [Compound 14a] | > 128 µM |  | > 32 µM | 165 to 166 °C |  |  |
| O=C(NCCCNCCNC(=O)c1cc(Cl)c[nH]1)c1cc(Cl)c[nH]1 [Compound 16b] | > 128 µM |  | > 32 µM | 167 to 169 °C |  |  |
| O=C(NCCCCCCNCCCCCCNC(=O)c1cc(I)c[nH]1)c1cc(I)c[nH]1 [Compound 15f] | > 64 µM |  | > 32 µM | 174 to 176 °C |  |  |
| O=C(NCCCNCCNC(=O)c1cc(Br)c[nH]1)c1cc(Br)c[nH]1 [Compound 16d] | > 128 µM |  | > 32 µM | 188 to 190 °C |  |  |
| O=C(NCCCCNC(=O)c1cc(Cl)c[nH]1)c1cc(Cl)c[nH]1 [Compound 12b] | > 64 µM |  | > 32 µM | > 230 °C |  |  |
| O=C(NCCCCCCNCCCCCCNC(=O)c1cc(Br)c(Br)[nH]1)c1cc(Br)c(Br)[nH]1 [Compound 15e] | 16 to 32 µM (≈ 11.5 to 22.9 µg/mL) | 4 to 8 µM | 4 to 8 µM (≈ 2.87 to 5.74 µg/mL) |  | 1.3 ± 0.8% |  |
